Data from patent US10150734B2, “Solid forms of 2-(5-(3-fluorophenyl)-3-hydroxypicolinamido)acetic acid, compositions, and uses thereof” (Akebia Therapeutics, Inc., priority 2015, dated 2018).
Converted amounts (≈) assume the structure as drawn. “Also recorded” adds a separate entry of the source.

Tests used:
[1] = Dynamic vapour sorption (moisture sorption) with XRPD of post-DVS material; assay type: physicochemical; settings: for Moisture Sorption 60% RH / Moisture adsorbed at 60% RH / Moisture Sorption 90% RH / Weight moisture uptake at 60% RH / Weight moisture uptake at 90% RH: DVS; for Moisture Sorption 60% RH / Moisture adsorbed at 60% RH / Moisture Sorption 90% RH: 25.0 °C; for XRPD analysis of the post-DVS material: after DVS and drying at 60 °C for 2 hours; for Hygroscopicity (in words): from DVS moisture sorption
Experimental: Dynamic vapour sorption experiment was carried out by first holding the sample at 40% RH and 25.0° C. until an equilibrium weight was reached or for a maximum of four hours. The sample was then subjected to an isothermal (at 25.0° C.) adsorption scan from 40 to 90% RH in steps of 10%. The sample was allowed to equilibrate to an asymptotic weight at each point for a maximum of four hours. Following adsorption, a desorption scan from […] to 5% RH (at 25.0° C.) was run in steps of 10% again allowing a maximum of four hours for equilibration to an asymptotic weight. An adsorption scan was then performed from 0 to 40% RH in steps of 10%. The sample was then dried for no less than two hours at 60.0° C. and the resulting solid analyzed by XRPD.

[2] = Single form slurry experiments of Forms A, D and G; assay type: physicochemical; settings: for Outcome in the single form and competitive slurry experiments (in words): ambient temperature, all tested conditions
Experimental: Single form slurry experiments were conducted for Forms A, D and G in three solvents stems, water, 1:2 v/v IPAc/heptane, and toluene to evaluate their physical form stability as a single polymorph (Table 14). Form A remained unchanged at six day time point. […] Form D remained unchanged for three days in water but converted to a mixture A and D at six days. In 1:2 IPAc/heptane and toluene, Form D converted to a mixture of A and D at three days and then Form A at six days. […] Form D is also a metastable polymorph but its conversion to Form A is kinetically slower than Form G. The conversion was the slowest in water partly due to low solubility.
Approximately 10-20 mg of Forms A, D and G were weighed into 8 mL clear vials equipped with magnetic stir bars (Table 14). Water, IPAc/Heptane (1:2 V/V) and toluene were used as the solvent systems for these competitive slurry experiments. Three selected solvents, 1.0 mL, were added to achieve free-flowing slurry and allowed to equilibrate at room temperature. All slurries will be isolated via centrifuge filtration after three day and six days of equilibration.

[3] = Competitive slurry experiment of Forms A, D and G; assay type: physicochemical; settings: mixture of Forms A, D and G slurried in Water, RT
Experimental: To evaluate relative stability of the anhydrate polymorphs, competitive slurry experiments of Forms A, D and G were conducted as described in below and summarized in Table 12. In all three solvent systems, water, 1:2 v/v IPAc/heptane, and toluene, Form A was the final polymorph after equilibration for 8 days.
Slurry experiments were performed using the following procedure: a mixture of Form A (˜12.0 mg, Compound 1), Form D (˜12.0 mg) and Form G (˜12.0 mg) were weighed into a 20.0 mL clear vial equipped with magnetic stir bars (Table 12). Water, IPAc/Heptane (1:2 V/V) and toluene were used as the solvent systems for these competitive slurry experiments. Three selected solvents, 1.0 mL, were added to achieve free-flowing slurry and allowed to equilibrate at room temperature.

[4] = Thermal stability experiments (solid stored at 60 °C; XRPD and HPLC); settings: for HPLC (% AUC): after storage at 60.0 °C; for Parent Material HPLC (% AUC): before storage at 60.0 °C; for Physical form / XRPD pattern change after storage at 60 °C for seven days (in words) / Chemical stability / degradation by HPLC after storage at 60 °C for seven days (in words): solid
[5] = Aqueous solubility (slurry in deionized water at room temperature, filtrate by HPLC, solids by XRPD); settings: deionized water, room temperature, equilibrated with stirring, filtrate by HPLC
Experimental: Approximately 14-25 mg of Forms A, D and G were transferred to 20 mL vials equipped with magnetic stir bars. 1.0 mL of deionized water was added and the resulting free flowing slurry was allowed to equilibrate over 1 and 7 days period with stirring at room temperature. […] The filtrates were analyzed by HPLC to determine solubility.

[6] = Competitive slurry experiment of Forms A to H; assay type: physicochemical; settings: IPAc/Heptane or toluene, RT
Experimental: Approximately 2 to 3 mg of materials from Forms A to H were weighed into a 20.0 mL clear vial equipped with magnetic stir bars (Table 13). IPAc/Heptane (1:2 V/V) and toluene were used as the solvent systems for these competitive slurry experiments. Two selected solvents, 1.0 mL, were added to achieve free-flowing slurry and allowed to equilibrate at room temperature. All slurries will be isolated via centrifuge filtration after one day and seven days of equilibration.

[7] = Slurry of a single salt (seven days of stirring in water / acetone), XRPD; assay type: physicochemical
[8] = Thermal holding (TGA thermal hold) experiments of salts, XRPD of resulting solid; assay type: physicochemical; settings: held at 150 °C
[9] = Competitive slurry of calcium, potassium and sodium salts in acetone; assay type: physicochemical; settings: acetone (50 μL water added for potassium and sodium salts), room temperature, one and seven days
Experimental: Calcium, sodium, and potassium salts were used to setup different competitive slurry experiments. For competitive slurry of calcium salts (˜5-6 mg of Salt I and Salt II) were weighed into a 5.0 mL clear vial equipped with magnetic stir bars. These steps were repeated for potassium salt material (˜5-6.5 mg of Salt III) and sodium salt materials (˜2.6-6.4 mg of Salt IV and Salt V). […] All slurries, 400 μL, were filtered through 0.45 micron centrifuge filters after one and seven days of equilibration. The solids were analyzed by XRPD to check for salt conversion (Table 36).

Structure (SMILES) | Moisture Sorption 60% RH ([1]; 60% RH) [%] | Moisture adsorbed at 60% RH ([1]; 60% RH) [wt %] | Moisture Sorption 90% RH ([1]; 90% RH) [wt %] | Weight moisture uptake at 60% RH ([1]; 60% RH) | Weight moisture uptake at 90% RH ([1]; 90% RH) | XRPD analysis of the post-DVS material [1] | Hygroscopicity (in words) [1] | Outcome in the single form and competitive slurry experiments (in words) [2] | XRPD, Day 1 [3] | HPLC (% AUC) [4] [% AUC] | Parent Material HPLC (% AUC) [4] [% AUC] | Physical form / XRPD pattern change after storage at 60 °C for seven days (in words) [4] | Chemical stability / degradation by HPLC after storage at 60 °C for seven days (in words) [4] | Solubility (extrapolated values based on the standard curve 0.008-0.2 mg/mL) [5] [µg/mL] | Moisture Sorption ([1]; 60% RH) | Moisture Sorption ([1]; 90% RH) | also measured
O=C(O)CNC(=O)c1ncc(-c2cccc(F)c2)cc1O [Form A, 2-(5-(3-fluorophenyl)-3-hydroxypicolinamido)acetic acid] | 0 | 0 | 6.1 | about 0 % weight | about 6.1 % weight | consistent with the starting material | moderately hygroscopic | most stable polymorph | A + D | >99.9 | >99.9 | No chemical and physical form changes | No chemical and physical form changes; also recorded: chemically stable | 2.6 (≈ 8.96 µM) | – | – | Moisture Sorption 90% RH ([1]; 90% RH, listed as A): 6.1 wt %
O=C(O)CNC(=O)c1ncc(-c2cccc(F)c2)cc1O [Form B, 2-(5-(3-fluorophenyl)-3-hydroxypicolinamido)acetic acid] | – | – | – | – | – | – | – | – | – | – | – | – | – | – | – | – | Outcome in the competitive slurry experiment (in words) [6]: converted to Form A
O=C(O)CNC(=O)c1ncc(-c2cccc(F)c2)cc1O [Form D, 2-(5-(3-fluorophenyl)-3-hydroxypicolinamido)acetic acid] | 0.7 | 0.7 | 1.0 | about 0.7 % weight | about 1.0 % weight | consistent with the starting material | slightly hygroscopic | converted to Form A | A + D | >99.9 | >99.9 | maintained its chemical and physical form | maintained its chemical and physical form; also recorded: chemically stable | 490 (≈ 1690 µM) | – | – | Moisture Sorption 90% RH ([1]; 90% RH, listed as D): 1.0 wt %; XRPD, Day 3 ([2]; single form slurry, IPAc/Heptane (1:2 V/V), RT): A + D; XRPD, Day 3 ([2]; single form slurry, Toluene, RT): A + D; XRPD, Day 6 ([2]; single form slurry, Water, RT, day 6): A + D
O=C([O-])CNC(=O)c1ncc(-c2cccc(F)c2)cc1O.[Na+] [Salt IX] | – | 0.3 | 0.3 | – | – | consistent with Salt IV of Compound 1 | moderately hydroscopic | – | – | – | – | no change in XRPD pattern | no degradation | – | 60% RH: 0.3 wt % | 90% RH: 0.3 wt % | Form after seven days of stirring in water and acetone ([7]; water and acetone): converted to Salt VIII or Salt IV; XRPD of solid after thermal holding experiment at 150 °C [8]: consistent with the starting material
O=C([O-])CNC(=O)c1ncc(-c2cccc(F)c2)cc1O.[Na+] [Salt VIII] | – | 1.0 | 2.7 | – | – | consistent with the starting material | moderately hydroscopic | – | – | – | – | no change in XRPD pattern | no degradation | – | 60% RH: 1.0 wt % | 90% RH: 2.7 wt % | Outcome of competitive slurry of salts (in words) [9]: stable in an acetone slurry; XRPD after seven days of stirring in acetone ([7]; acetone): no change in XRPD pattern
